Laboratory results published in patent US12404304B1, “Telomerase reverse transcriptase (TERT) expression enhancing compounds and methods for using the same” (Sierra Sciences, LLC, priority 2007, dated 2025).

Tests used:
viable cells in culture = experiment: Cell viability assay (CellTiter-Glo Luminescent Cell Viability Assay, ATP quantitation, percent of vehicle control)
[1] = tested on: human TERT expression (hTERT mRNA); experiment: Quantitative real-time RT-PCR of hTERT mRNA expression (Ct, transcripts) in compound-treated cells; type: cell-based; conditions: quantitative real-time RT-PCR
Text: Telomerase is a ribonucleoprotein complex composed of the catalytic protein subunit (human telomerase reverse transcriptase or hTERT) and the RNA template. hTERT expression level can be measured by PCR.
Briefly, amplification of the target sequence is monitored per PCR cycle by detecting the fluorescence signal emitted by an internal probe that is degraded by the 5′ nuclease activity of the Taq polymerase. The emission signal accumulates in each sample, and the Ct required to reach a given fluorescence threshold is determined (Ct stands for Cycle Threshold and is a measure of the number of PCR cycles that are required to amplify a target—thus, a lower Ct score means that there is more abundant hTERT mRNA). Thus, the Ct value of a sample inversely correlates to the quantity of the starting cDNA which correlates to the number of mRNA transcripts. Using the cDNA of known quantity, a standard curve can be generated and used to determine the starting amount of mRNA transcripts based on the […] of each sample.
Quantitative real-time PCR can be done on cDNA from test compound-treated and nontreated cells by use of a ABI Prism 7900 Sequence Detection System (PE Applied Biosystems, Foster City, CA) following the Assays-on-Demand protocol (PE Applied Biosystems, Foster City, CA). Quantitative data can be analyzed using the Sequence Detection System software version 2.1 (PE Applied Biosystems).
The following compounds were tested in assays designed to identify compounds that enhance human TERT expression.

Row | Structure (SMILES) | Average Cell Viability after 24 Hours (% DMSO) (viable cells in culture) | Average Number of hTERT Transcripts [1]
1 | CCCC(=O)NC(c1ccc(SC)cc1)c1ccc2cccnc2c1O (stereo not drawn) [compound 1010] | 86.63 | 35.70
2 | COc1cc(NS(=O)(=O)c2cc(Cl)ccc2Cl)c2ncccc2c1 [compound 1026] | 52.03 | 11.55
3 | CC(=O)NC(c1ccc(N(C)C)cc1)c1cc(Cl)c2cccnc2c1O (stereo not drawn) [compound 1059] | 53.52 | 26.79
4 | COc1ccc(C(NC(=O)CC(C)C)c2ccc3cccnc3c2O)cc1OC (stereo not drawn) [compound 1076] | 62.85 | 61.45
5 | Cc1cn(-c2ccc3c(Cl)cc(Cl)c(O)c3n2)nc1C [compound 1079] | 71.22 | 98.36
6 | Cc1ccnc(NC(c2cccc(Cl)c2)c2ccc3ccc(C)nc3c2O)c1 (stereo not drawn) [compound 1080] | 72.44 | 
7 | Cc1ccnc(NC(c2ccc([N+](=O)[O-])cc2)c2ccc3ccc(C)nc3c2O)c1 (stereo not drawn) [compound 1081] | 70.69 | 18.87
8 | Oc1c(C(Nc2ccccn2)c2ccc(Cl)c(Cl)c2)ccc2cccnc12 (stereo not drawn) [compound 1082] | 56.92 | 
9 | Cc1ccnc(NC(c2cccc(Br)c2)c2ccc3ccc(C)nc3c2O)c1 (stereo not drawn) [compound 1083] | 74.39 | 
10 | Cc1ccnc(NC(c2cccc([N+](=O)[O-])c2)c2ccc3ccc(C)nc3c2O)c1 (stereo not drawn) [compound 1084] | 65.08 | 11.54
11 | Oc1c(CN2CCN(Cc3ccc4cccnc4c3O)CC2)ccc2cccnc12 [compound 1085] | 61.83 | 59.41
12 | O=C(NC(c1ccccc1)c1ccc2cccnc2c1O)c1ccccc1 (stereo not drawn) [compound 1086] | 56.53 | 
13 | CC(C)C(=O)NC(c1ccco1)c1ccc2cccnc2c1O (stereo not drawn) [compound 1087] | 72.33 | 
14 | Cc1ccc(C(NC(=O)C(C)C)c2ccc3cccnc3c2O)cc1 (stereo not drawn) [compound 1088] | 55.87 | 
15 | CCN1CCN(Cc2ccc3cccnc3c2O)CC1 [compound 1089] | 89.98 | 
16 | CC(C)C(=O)NC(c1cccs1)c1cc(Cl)c2cccnc2c1O (stereo not drawn) [compound 1090] | 27.89 | 29.08
17 | Cc1ccc(S(=O)(=O)Nc2ccc(O)c3ncccc23)cc1 [compound 1091] | 94.30 | 
18 | Cc1ccc(S(=O)(=O)Nc2cc(Cl)c(O)c3ncccc23)cc1 [compound 1092] | 66.43 | 
19 | Cc1ccc(S(=O)(=O)Nc2cc(S(=O)(=O)c3ccc(C)cc3)c(O)c3ncccc23)cc1 [compound 1093] | 66.50 | 
20 | Oc1c(C(Nc2ccccn2)c2ccccc2Cl)ccc2cccnc12 (stereo not drawn) [compound 1094] | 56.64 | 32.08

Row | Structure (SMILES) | Average Cell Viability after 24 Hours (% DMSO) (viable cells in culture) | Average Number of hTERT Transcripts [1]
21 | Oc1c(C(Nc2ccccc2Cl)c2ccccn2)ccc2cccnc12 (stereo not drawn) [compound 1095] | 56.93 | 
22 | CCN(CC)Cc1ccc(O)c2ncccc12 [compound 1096] | 67.13 | 
23 | COCc1cc(CN2CCCC2)c(O)c2ncccc12 [compound 1097] | 78.08 | 
24 | COCc1cc(CN2CCCCC2)c(O)c2ncccc12 [compound 1098] | 68.58 | 
25 | CCOCc1cc(CN2CCCCC2)c(O)c2ncccc12 [compound 1099] | 64.22 | 
26 | CCCOCc1cc(CN2CCCCC2)c(O)c2ncccc12 [compound 1100] | 56.10 | 
27 | CCCOCc1cc(CN2CCN(C)CC2)c(O)c2ncccc12 [compound 1101] | 76.69 | 
28 | CC(C)OCc1cc(CN2CCCCC2)c(O)c2ncccc12 [compound 1102] | 68.56 | 
29 | CC1CCN(Cc2cc(COC(C)C)c3cccnc3c2O)CC1 [compound 1103] | 58.35 | 
30 | Cc1cc(NC(c2ccccn2)c2ccc3cccnc3c2O)no1 (stereo not drawn) [compound 1104] | 71.14 | 
31 | Cc1ccc2c(I)cc(I)c(O)c2n1 [compound 1105] | 58.63 | 
32 | COc1ccc(-c2cc(O)n(-c3ccc([N+](=O)[O-])cc3)n2)cc1 [compound 1106] | 79.49 | 68.17
33 | COc1ccc(C2=NN(c3nc4ccccc4s3)C(=O)C2)cc1 [compound 1107] | 98.68 | 67.06
34 | Oc1cc(-c2ccccc2)nn1-c1nc2ccccc2[nH]1 [compound 1108] | 94.50 | 79.20
35 | CC1=NN(c2nc3ccccc3s2)C(=O)C1CCC(C)C (stereo not drawn) [compound 1109] | 67.53 | 35.79
36 | Oc1cc(-c2ccc(F)cc2)nn1-c1nc2ccccc2[nH]1 [compound 1110] | 100.67 | 86.68
37 | CCCCc1c(C)nn(-c2nc3ccccc3[nH]2)c1O [compound 1111] | 47.04 | 18.99
38 | Oc1c2c(nn1-c1nc3ccccc3[nH]1)CCCC2 [compound 1112] | 77.30 | 112.20
39 | Oc1c2c(nn1-c1nc3ccccc3s1)CCCC2 [compound 1113] | 89.80 | 66.98
40 | CCc1c(C)nn(-c2nc3ccccc3s2)c1O [compound 1114] | 89.40 | 148.58

Row | Structure (SMILES) | Average Cell Viability after 24 Hours (% DMSO) (viable cells in culture) | Average Number of hTERT Transcripts [1]
41 | CC1=NN(c2ccccc2)C(=O)C1C(=O)c1ccc(Br)cc1 (stereo not drawn) [compound 1115] | 81.68 | 59.18
42 | Oc1cc(CSc2ccc(Cl)cc2)nn1-c1ccccc1 [compound 1116] | 75.26 | 102.70
43 | Cc1c2c(=O)n(-c3nc4ccccc4s3)nc-2cc(O)n1Cc1ccccc1 [compound 1117] | 84.16 | 57.88
44 | Cc1nnc(SCC2=NN(c3nc4ccccc4[nH]3)C(=O)C2)s1 [compound 1118] | 73.41 | 54.45
45 | O=C1CC(CSc2nnnn2-c2ccccc2)=NN1c1nc2ccccc2[nH]1 [compound 1119] | 62.38 | 125.15
46 | Cc1ccc(-c2cc(O)n(-c3nc4ccccc4[nH]3)n2)cc1 [compound 1120] | 52.50 | 118.82
47 | Oc1cc(-c2ccc(Cl)cc2)nn1-c1nc2ccccc2[nH]1 [compound 1121] | 52.77 | 119.73
48 | CCCC1=NN(c2ccc(Cl)cc2)C(=O)C1 [compound 1122] | 66.57 | 13.40
49 | Cc1csc(-n2nc(C)c(CC(=O)Nc3ccc(Br)cc3)c2O)n1 [compound 1123] | 79.37 | 58.23
50 | CCCCNC(=O)Cc1c(C)nn(-c2nc(C)c(C)s2)c1O [compound 1124] | 87.04 | 34.96
51 | COc1cc([C@@H]2c3cc4c(cc3C(OC3O[C@@H]5COC(C)O[C@H]5[C@H](O)[C@H]3O)C3COC(=O)[C@@H]32)OCO4)cc(OC)c1O (stereo partly drawn) [compound 1224] |  | 89.52
52 | O=S1(=O)CCC(N2COc3c(cc(Cl)c4cccnc34)C2)C1 (stereo not drawn) [compound 1462] | 62.26 | 
53 | Cc1ccc2ccc(C(Nc3ccccn3)c3ccccc3Br)c(O)c2n1 (stereo not drawn) [compound 1477] | 76.49 | 
54 | O=C(CCc1ccccc1)NC(c1ccc(Cl)cc1)c1ccc2cccnc2c1O (stereo not drawn) [compound 1478] | 72.44 | 
55 | CC(C)C(=O)NC(c1ccccc1)c1cc([N+](=O)[O-])c2cccnc2c1O (stereo not drawn) [compound 1479] | 68.20 | 
56 | Cc1ccc2ccc(C(Nc3ccccn3)c3ccccc3Cl)c(O)c2n1 (stereo not drawn) [compound 1480] | 79.43 | 
57 | COc1ccc(C(NC(=O)C(C)C)c2cc([N+](=O)[O-])c3cccnc3c2O)cc1OC (stereo not drawn) [compound 1481] | 78.30 | 
58 | Oc1ccc(CN2CCN(c3cccc(Cl)c3)CC2)c2cccnc12 [compound 1482] | 80.49 | 
